“Also recorded” adds a separate entry of the source. Marks after values point to notes of the source that are not given here.
Columns and labels:
[1] = test system: myotube mitochondrial biogenesis; assay: Myotube mitochondrial biogenesis (NAO binding), Example 1; assay type: cell-based; settings: assessed fluorometrically via NAO binding
Experimental: We next investigated the role of intact leucine (0-0.5 mM) vs. its metabolites, α-ketoisocaproic acid (KIC) (0-0.5 mM) and HMB (0-50 μM). […] Both leucine and HMB increased myotube mitochondrial biogenesis (assessed fluorometrically via NAO binding) by ˜50%, (p<0.005, FIG. 3).

[2] = test system: PGC-1α, NRF-1 and UCP3 genes; assay: Expression of mitochondrial regulatory and component genes; assay type: cell-based
Sirt3 = target: T1, Sirt3 (Mus musculus, UniProt Q8R104); assay: Sirt3 activity in mitochondrial protein of treated 3T3-L1 adipocytes; assay type: cell-based; settings: 4 hours, leucine 0.5 mM, HMB 5 uM, resveratrol 200 nM
T1 construct: endogenous in cells; host or cells: 3T3-L1 adipocytes (mitochondrial protein)
T1 sequence (Q8R104 1-334): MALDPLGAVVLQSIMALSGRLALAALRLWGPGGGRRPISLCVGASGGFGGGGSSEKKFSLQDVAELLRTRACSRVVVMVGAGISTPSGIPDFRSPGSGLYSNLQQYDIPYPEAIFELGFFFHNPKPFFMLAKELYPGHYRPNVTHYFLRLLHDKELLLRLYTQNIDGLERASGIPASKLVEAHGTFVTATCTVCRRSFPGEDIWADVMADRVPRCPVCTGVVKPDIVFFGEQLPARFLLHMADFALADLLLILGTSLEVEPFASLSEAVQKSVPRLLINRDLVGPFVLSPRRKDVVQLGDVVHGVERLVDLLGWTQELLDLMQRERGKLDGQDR

Adipocytes (3T3-L1) = assay: Fatty acid oxidation (3H-palmitate) in 3T3-L1 adipocytes; assay type: cell-based; settings: high (25 mM) glucose, 4 hours; leucine 0.5 mM, HMB 5 uM, resveratrol 200 nM; vs. control
Experimental: High glucose medium reduced fatty acid oxidation by 46% (p<0.05).
Fatty acid oxidation was measured using ^3H-labeled palmitate oxidation, with the ^3H label trapped as water as a result of the fat oxidation. The ^3H was then measured via scintillation counter.

[3] = MicroPET/CT glucose and palmitate uptake in diet-induced obese mice; assay type: in vivo; settings: 6 weeks on diet, low resveratrol 12.5 mg/kg diet, low HMB 2 g CaHMB/kg diet, high HMB 10 g CaHMB/kg diet, leucine 2.42% of diet
Source text: (§1) Six week old male c57/BL6 mice were fed a high-fat diet with fat increased to 45% of energy (Research Diets D12451) for 6 weeks to induce obesity.
MicroPET/CT (Glucose and Palmitate Uptake): At the end of the treatment period (6 weeks of treatment) subgroups of each treatment diet group (5 animals/group, 35 animals total) were used to measure whole body glucose and palmitate uptake via PET/CT Imaging. To visualize these compounds using microPET imaging, the glucose or palmitate was labeled with fluorine-18 (108 mins half life) or carbon-11 (20 mins half life), respectively. Each mouse was fasted for 4 hours, then anesthetized using 1-3% isoflurane delivered by nose cone or in a mouse-sized induction chamber purpose-built for small animal imaging protocols. While under anesthesia the mice were injected iv with <2 mCi of each tracer, then be left for a period of time (minutes to up ˜1 hour) to allow the uptake of the tracer. During the scan, mice were kept warm using a thermostatically controlled heated bed and were treated with ophthalmic ointment prior to scanning. Following the live scan the mice were returned to their cage and revived. Mice were monitored constantly during this time. Following live data acquisition the mice were sacrificed by isoflurane overdose and organs harvested for further experiments.

[4] = Oxygen consumption/substrate utilization (metabolic chambers) in diet-induced obese mice; assay type: in vivo; settings: low resveratrol 12.5 mg/kg diet, low HMB 2 g CaHMB/kg diet, high HMB 10 g CaHMB/kg diet, leucine 2.42% of diet
Experimental: as §1
Oxygen Consumption/Substrate Utilization: at the end of the obesity induction period (day 0 of treatment group) and at 2 weeks and 6 weeks of treatment, oxygen consumption and substrate utilization was measured via metabolic chambers using the Comprehensive Lab Animal Monitoring Systems (CLAMS, Columbus Instruments, Columbus, Ohio) in subgroups of each treatment group. Each animal was placed in individual cages without bedding that allow automated, non-invasive data collection. Each cage is an indirect open circuit calorimeter that provides measurement of oxygen consumption, carbon dioxide production, and concurrent measurement of food intake. All mice were acclimatized to the chambers for 24 hours prior to the experiment and maintained under the regular 12:12 light:dark cycle with free access to water and food. All experiments were started in the morning and data were collected for 24 hours. Each chamber was passed with 0.6 l of air/min and was sampled for 2 min at 32-minute intervals. Exhaust O2 and CO2 content from each chamber was compared with ambient O2 and CO2 content. Food consumption was measured by electronic scales.

[5] = Indices of insulin sensitivity (plasma glucose, insulin, HOMAIR) in diet-induced obese mice; assay type: in vivo; settings: 6 weeks on diet, low resveratrol 12.5 mg/kg diet, low HMB 2 g CaHMB/kg diet, high HMB 10 g CaHMB/kg diet, leucine 2.42% of diet
Source text: Insulin sensitivity can be measured using a variety of techniques, including HOMAIR. HOMAIR, which is the homeostasis model assessment of insulin resistance can be used as a screening index of changes in insulin sensitivity. HOMAIR can be calculated via standard formula from fasting plasma insulin and glucose as follows: HOMAIR=[Insulin (uU/mL)×glucose (mM)]/22.5.
as §1
At the of the treatment period (6 weeks) all animals were humanely euthanized, and blood and tissues collected for further experiments.

C-reactive protein = assay: Inflammatory biomarker C-reactive protein in diet-induced obese mice; assay type: in vivo; settings: 6 weeks on diet, low resveratrol 12.5 mg/kg diet, low HMB 2 g CaHMB/kg diet, high HMB 10 g CaHMB/kg diet, leucine 2.42% of diet
MCP-1 = assay: Inflammatory biomarker MCP-1 in diet-induced obese mice; assay type: in vivo; settings: 6 weeks on diet, low resveratrol 12.5 mg/kg diet, low HMB 2 g CaHMB/kg diet, high HMB 10 g CaHMB/kg diet, leucine 2.42% of diet
Adiponectin = Adiponectin in diet-induced obese mice; assay type: in vivo; settings: 6 weeks on diet, low resveratrol 12.5 mg/kg diet, low HMB 2 g CaHMB/kg diet, high HMB 10 g CaHMB/kg diet, leucine 2.42% of diet

CC(C)(O)CC(=O)O [HMB]
increase in myotube mitochondrial biogenesis [1]: ~50%
expression of mitochondrial regulatory (PGC-1α and NRF-1) and component (UCP3) genes [2]: stimulated expression
increase in Sirt3 activity (Sirt3): no significant independent effect; also recorded: no independent effects
increase in fatty acid oxidation, high glucose (Adipocytes (3T3-L1)): 29%
Fat oxidation (PET palmitate uptake; Muscle SUV) [3]: 1.90 ± 0.29^a SUV
Muscle Glucose Uptake (18F-deoxyglucose SUV) [3]: 2.99 ± 0.42^a SUV
Heat Production [4]: 0.526 ± 0.011^a
Respiratory Exchange Ratio (24 hr RER) [4]: 0.844 ± 0.012^a
HOMAIR [5]: 1.93 ± 0.32^a
Glucose (mM) ([5]; plasma): 4.28 ± 0.49^a mM
Insulin (μU/mL) ([5]; plasma): 8.3 ± 1.1^a μU/mL
C-reactive protein (C-reactive protein): 98.6 ± 5.1 ng/mL
MCP-1 (pg/mL) (MCP-1): 116.8 ± 9.3^a pg/mL
Adiponectin (ng/mL) (Adiponectin): 11.1 ± 1.6^a ng/mL
